From PMC8037569, “Neuroprotective Effect of Aurantio-Obtusin, a Putative Vasopressin V1A Receptor Antagonist, on Transient Forebrain Ischemia Mice Model” (International Journal of Molecular Sciences, 2021)
Where two headings read alike, the source gives them in different places.

Tests used:
hV1AR = target: T1, hV1AR (Homo sapiens, UniProt P37288); assay: GPCR functional assay: intracellular Ca2+ mobilization in transfected CHO cells; assay type: cell-based; conditions: for % Stimulation (agonist effect) of control agonist response, V1A (h): control response to 1 μM AVP
T1 construct: host or cells: CHO

vasopressin receptors = system: vasopressin receptors; parameters: method as in PMID 32280914; conditions: at the tested concentrations; cited from earlier work
dopamine receptors = system: dopamine receptors; parameters: method as in PMID 32280914; conditions: at the tested concentrations; cited from earlier work
hD3 receptor = target: T2, hD3 receptor (Homo sapiens, UniProt P35462); assay: GPCR functional assay: cAMP modulation by HTRF in transfected CHO cells; assay type: cell-based; conditions: for % Stimulation (agonist effect) of control agonist response, D3 (h): 100 µM test compound, control response to 300 nM dopamine; for inhibition at 100 µM: CHO, read-out: % Inhibition (antagonist effect) of control agonist response, D3 (h)
T2 construct: host or cells: CHO

hNK1R = target: T3, hNK1R (Homo sapiens, UniProt P25103); assay: GPCR functional assay: intracellular Ca2+ mobilization in U373MG cells; assay type: cell-based; conditions: for % Inhibition (antagonist effect) of control agonist response, NK1 (h) / % Stimulation (agonist effect) of control agonist response, NK1 (h): 100 µM test compound; for % Inhibition (antagonist effect) of control agonist response, NK1 (h): control response to 1 nM [Sar9, Met(O2)11]-SP; for % Stimulation (agonist effect) of control agonist response, NK1 (h): control response to 30 nM [Sar9, Met(O2)11]-SP; for inhibition at 100 µM: U373 MG, read-out: % Inhibition (antagonist effect) of control agonist response, NK1 (h)
T3 construct: Human endogenous (U373MG cells); host or cells: U373MG

h5-HT1AR = target: T4, h5-HT1AR (Homo sapiens, UniProt P08908); assay: GPCR functional assay: intracellular Ca2+ mobilization in Ba/F3 cells; assay type: cell-based; conditions: for % Inhibition (antagonist effect) of control agonist response, 5-HT1A (h) / % Stimulation (agonist effect) of control agonist response, 5-HT1A (h): 100 µM test compound; for % Inhibition (antagonist effect) of control agonist response, 5-HT1A (h): control response to 30 nM serotonin; for % Stimulation (agonist effect) of control agonist response, 5-HT1A (h): control response to serotonin (2.5 μM); for inhibition at 100 µM: BaF3, read-out: % Inhibition (antagonist effect) of control agonist response, 5-HT1A (h)
T4 construct: host or cells: Ba/F3 (murine pro-B)
T4 sequence (P08908 1-422): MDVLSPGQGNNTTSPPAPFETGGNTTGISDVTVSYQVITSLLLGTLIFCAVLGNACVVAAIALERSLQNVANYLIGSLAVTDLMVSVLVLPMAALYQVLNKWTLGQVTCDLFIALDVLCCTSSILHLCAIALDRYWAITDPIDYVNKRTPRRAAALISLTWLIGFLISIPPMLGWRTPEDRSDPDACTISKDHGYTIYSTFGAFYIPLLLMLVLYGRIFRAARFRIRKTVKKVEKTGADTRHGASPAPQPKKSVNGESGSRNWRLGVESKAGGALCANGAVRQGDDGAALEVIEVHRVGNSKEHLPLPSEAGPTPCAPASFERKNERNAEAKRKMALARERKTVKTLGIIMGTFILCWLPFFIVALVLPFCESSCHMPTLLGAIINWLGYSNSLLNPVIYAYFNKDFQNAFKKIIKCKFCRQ

[1] = target: angiotensin-converting enzyme (ACE); parameters: method as in PMID 18803227; conditions: read-out: Inhibition of ACE activity, IC50; cited from earlier work
[2] = 100 µM test compound, control response to 10 nM AVP
[3] = CHO, read-out: % Inhibition (antagonist effect) of control agonist response, V1A (h)

T3 sequence (P25103 whole entry): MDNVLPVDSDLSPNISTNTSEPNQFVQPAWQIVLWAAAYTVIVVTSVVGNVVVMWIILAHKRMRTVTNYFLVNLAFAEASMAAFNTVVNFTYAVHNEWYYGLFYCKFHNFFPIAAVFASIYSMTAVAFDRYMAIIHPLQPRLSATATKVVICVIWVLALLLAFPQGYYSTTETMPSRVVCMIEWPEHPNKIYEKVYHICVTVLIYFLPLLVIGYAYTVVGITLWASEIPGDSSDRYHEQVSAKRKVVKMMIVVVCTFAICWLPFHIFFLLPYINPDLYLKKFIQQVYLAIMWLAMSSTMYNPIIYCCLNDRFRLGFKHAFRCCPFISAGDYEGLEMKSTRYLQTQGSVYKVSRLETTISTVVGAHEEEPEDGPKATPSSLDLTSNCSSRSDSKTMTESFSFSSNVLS
T2 sequence (P35462 whole entry): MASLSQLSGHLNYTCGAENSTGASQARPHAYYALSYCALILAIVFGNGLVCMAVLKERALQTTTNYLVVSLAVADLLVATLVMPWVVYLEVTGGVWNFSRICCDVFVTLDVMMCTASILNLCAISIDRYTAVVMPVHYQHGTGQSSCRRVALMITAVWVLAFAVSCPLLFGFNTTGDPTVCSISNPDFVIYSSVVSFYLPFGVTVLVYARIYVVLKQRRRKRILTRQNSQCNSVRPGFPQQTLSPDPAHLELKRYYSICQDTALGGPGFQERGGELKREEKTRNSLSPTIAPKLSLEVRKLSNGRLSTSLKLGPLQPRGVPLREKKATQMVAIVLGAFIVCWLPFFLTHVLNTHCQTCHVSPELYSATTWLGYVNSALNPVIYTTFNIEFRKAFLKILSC
T1 sequence (P37288 whole entry): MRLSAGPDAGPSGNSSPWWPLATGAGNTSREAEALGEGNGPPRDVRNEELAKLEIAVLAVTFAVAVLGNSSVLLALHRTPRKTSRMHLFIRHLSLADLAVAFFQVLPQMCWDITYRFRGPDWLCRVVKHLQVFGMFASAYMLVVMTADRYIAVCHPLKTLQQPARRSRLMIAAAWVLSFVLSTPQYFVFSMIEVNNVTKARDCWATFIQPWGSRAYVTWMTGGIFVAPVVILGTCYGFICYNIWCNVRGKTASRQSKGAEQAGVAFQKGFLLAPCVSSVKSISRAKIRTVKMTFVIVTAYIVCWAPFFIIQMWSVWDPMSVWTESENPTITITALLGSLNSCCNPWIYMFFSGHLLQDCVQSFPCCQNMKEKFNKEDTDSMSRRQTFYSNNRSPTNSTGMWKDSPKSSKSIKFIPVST

COc1c(O)c(C)cc2c1C(=O)c1c(O)cc(O)cc1C2=O [2-Hydroxyemodin 1-methylether]
inhibition at 12.5 µM (hV1AR; CHO, 12.5 µM, control response to 10 nM AVP, read-out: V1AR antagonist effect, % inhibition): 23.1%
inhibition at 25 µM (hV1AR; CHO, 25 µM, control response to 10 nM AVP, read-out: V1AR antagonist effect, % inhibition): 26.5%
inhibition at 50 µM (hV1AR; CHO, 50 µM, control response to 10 nM AVP, read-out: V1AR antagonist effect, % inhibition): 36.6%
inhibition at 100 µM (hV1AR; CHO, 100 µM test compound, control response to 10 nM AVP, read-out: % Inhibition (antagonist effect) of control agonist response, V1A (h) (converted)): 42.3%

Cc1cc2c(c(O)c1O)C(=O)c1c(O)cc(O)cc1C2=O [7-hydroxyemodin]
Activity on vasopressin receptors (vasopressin receptors): showed activity
Activity on dopamine receptors (dopamine receptors): showed activity

Cc1cc(=O)c2c(O)c3c(OC4OC(CO)C(O)C(O)C4O)cc(O)cc3cc2o1 (stereo not drawn) [Cassiaside]
% Stimulation (agonist effect) of control agonist response, D3 (h) (hD3 receptor): 14.75 ± 1.20%
inhibition at 100 µM (hD3 receptor): -5.05%
% Inhibition (antagonist effect) of control agonist response, NK1 (h) (hNK1R): negligible
% Stimulation (agonist effect) of control agonist response, NK1 (h) (hNK1R): −1.70 ± 0.14%
inhibition at 100 µM (hNK1R): 20.5%
% Inhibition (antagonist effect) of control agonist response, 5-HT1A (h) (h5-HT1AR): negligible
% Stimulation (agonist effect) of control agonist response, 5-HT1A (h) (h5-HT1AR): 1.75 ± 0.07%
inhibition at 100 µM (h5-HT1AR): -13.4%
% Inhibition (antagonist effect) of control agonist response, V1A (h) (hV1AR; [2]): negligible
% Stimulation (agonist effect) of control agonist response, V1A (h) (hV1AR; 100 µM test compound): 1.40 ± 2.83%
inhibition at 100 µM (hV1AR; [3]): -9.9%

FC(F)(F)c1cc(CO[C@H]2CCCN[C@H]2c2ccccc2)cc(C(F)(F)F)c1 [L 733,060, reference compound]
IC50 (hNK1R; standard antagonist, read-out: Antagonist effect IC50, NK1 (h)): 0.00058 µM

COc1cc(OC2OC(COC3OC(CO)C(O)C(O)C3O)C(O)C(O)C2O)c2c(O)c3c(=O)cc(C)oc3cc2c1 (stereo not drawn) [Rubrofusarin Gentiobioside, Rubrofusarin 6-O-β-gentiobioside]
% Stimulation (agonist effect) of control agonist response, D3 (h) (hD3 receptor): 7.05 ± 1.63%
inhibition at 100 µM (hD3 receptor): -0.05%
% Inhibition (antagonist effect) of control agonist response, NK1 (h) (hNK1R): negligible
% Stimulation (agonist effect) of control agonist response, NK1 (h) (hNK1R): −1.40 ± 0.42%
inhibition at 100 µM (hNK1R): 3.9%
% Inhibition (antagonist effect) of control agonist response, 5-HT1A (h) (h5-HT1AR): negligible
% Stimulation (agonist effect) of control agonist response, 5-HT1A (h) (h5-HT1AR): −0.30 ± 0.28%
inhibition at 100 µM (h5-HT1AR): 4.25%
% Inhibition (antagonist effect) of control agonist response, V1A (h) (hV1AR; [2]): negligible
% Stimulation (agonist effect) of control agonist response, V1A (h) (hV1AR; 100 µM test compound): −4.40 ± 1.41%
inhibition at 100 µM (hV1AR; [3]): -13.6%

O=C1c2cccc(O)c2C(=O)c2c(O)cc(CO)cc21 [aloe-emodin]
Activity on vasopressin receptors (vasopressin receptors): remained inactive
Activity on dopamine receptors (dopamine receptors): remained inactive

Cc1cc(O)c2c(c1)C(=O)c1cc(O)cc(O)c1C2=O [emodin]
Activity on vasopressin receptors (vasopressin receptors): showed activity
Activity on dopamine receptors (dopamine receptors): showed activity

COc1c(O[C@@H]2O[C@H](CO)[C@@H](O)[C@H](O)[C@H]2O)cc2c(c1O)C(=O)c1c(cc(C)c(O)c1OC)C2=O [gluco-aurantio-obtusin]
IC50 [1]: 30.24 ± 0.2 µM

COc1cc(O)cc2c1C(=O)c1c(O)cc(C)cc1C2=O [questin]
Activity on vasopressin receptors (vasopressin receptors): remained inactive
Activity on dopamine receptors (dopamine receptors): remained inactive
